Experimental data as given in patent US4605744A, “Imidazole derivatives” (Hoffmann-La Roche Inc., priority 1985, dated 1986).
Counter-ions that a name gives are not always drawn. Like-named read-outs stand apart in the source and are kept apart here.

What was measured:
Type in all cases: cell-based
[1] = test system: E. coli 257; assay: In vitro antibacterial activity (MIC, Mueller-Hinton broth)
Description: (§1) Drug dilutions are prepared in Mueller-Hinton broth ranging from 128 to 0.008 μg/ml. The diluted agents are dispensed in 100 μl amounts into the wells of a 96-well tray and used immediately or frozen at -10° to -70° C. until needed. Using an automated inoculator, 1.5 μl of a 10^-2 dilution of an overnight culture is added to each well of the tray. The tops of the trays are then sealed using transparent tape and incubated overnight at 37° C. The trays are examined with the aid of a viewer. The lowest concentration at which no growth is observed is considered to be the minimum inhibitory concentration (MIC).

[2] = test system: C. freundii 8ASM; assay: In vitro antibacterial activity (MIC); conditions: Citrobacter freundii, 8ASM, C. freundii 8ASM; read-out: MIC
Description: as §1

[3] = test system: E. aerogenes 503-478; assay: In vitro antibacterial activity (MIC); conditions: Klebsiella aerogenes, 503478, E. aerogenes 503-478; read-out: MIC
Description: as §1

[4] = test system: E. aerogenes 83; assay: In vitro antibacterial activity (MIC)
Description: as §1

[5] = test system: E. aerogenes 8; assay: In vitro antibacterial activity (MIC)
Description: as §1

[6] = test system: E. cloacae 214; assay: In vitro antibacterial activity (MIC); conditions: Enterobacter cloacae, 214, E. cloacae 214; read-out: MIC
Description: as §1

[7] = test system: E. cloacae 24; assay: In vitro antibacterial activity (MIC); conditions: Enterobacter cloacae, 24, E. cloacae 24; read-out: MIC
Description: as §1

[8] = test system: E. cloacae 5699; assay: In vitro antibacterial activity (MIC); conditions: Enterobacter cloacae, 5699, E. cloacae 5699; read-out: MIC
Description: as §1

[9] = test system: E. cloacae 9295; assay: In vitro antibacterial activity (MIC); conditions: Enterobacter cloacae, 9295, E. cloacae 9295; read-out: MIC
Description: as §1

[10] = test system: E. cloacae 9570A; assay: In vitro antibacterial activity (MIC); conditions: Enterobacter cloacae, read-out: MIC
Description: as §1

[11] = test system: E. cloacae P99; assay: In vitro antibacterial activity (MIC); conditions: Enterobacter cloacae, P99, E. cloacae P99
Description: as §1

[12] = test system: K. pneumoniae 4964; assay: In vitro antibacterial activity (MIC); conditions: Klebsiella pneumoniae, 4964, K. pneumoniae 4964; read-out: MIC
Description: as §1

[13] = test system: K. pneumoniae 503-994; assay: In vitro antibacterial activity (MIC); conditions: Klebsiella pneumoniae, 503994, K. pneumoniae 503-994; read-out: MIC
Description: as §1

[14] = test system: K. pneumoniae 5096; assay: In vitro antibacterial activity (MIC)
Description: as §1

[15] = test system: K. pneumoniae 8357; assay: In vitro antibacterial activity (MIC); conditions: Klebsiella pneumoniae, 8357, K. pneumoniae 8357; read-out: MIC
Description: as §1

[16] = test system: K. pneumoniae A; assay: In vitro antibacterial activity (MIC); conditions: Klebsiella pneumoniae, K. pneumoniae A; read-out: MIC
Description: as §1

[17] = test system: K. pneumoniae HE7; assay: In vitro antibacterial activity (MIC); conditions: Klebsiella pneumoniae; K. pneumoniae HE7; read-out: MIC
Description: as §1

[18] = test system: P. aeruginosa 503-820; assay: In vitro antibacterial activity (MIC); conditions: Pseudomonas aeruginosa, 503820; P. aeruginosa 503-820; read-out: MIC
Description: as §1

[19] = test system: P. mirabilis 190; assay: In vitro antibacterial activity (MIC); conditions: Proteus mirabilis, 190, P. mirabilis 190; read-out: MIC
Description: as §1

[20] = test system: P. mirabilis 2; assay: In vitro antibacterial activity (MIC); conditions: Proteus mirabilis, 2, P. mirabilis 2; read-out: MIC
Description: as §1

[21] = test system: P. mirabilis 503-1136; assay: In vitro antibacterial activity (MIC); conditions: Proteus mirabilis, 5031136, P. mirabilis 503-1136; read-out: MIC
Description: as §1

[22] = test system: P. mirabilis 620A; assay: In vitro antibacterial activity (MIC); conditions: Proteus mirabilis, 620A, P. mirabilis 620A; read-out: MIC
Description: as §1

[23] = test system: P. mirabilis 90; assay: In vitro antibacterial activity (MIC); conditions: Proteus mirabilis, 90, P. mirabilis 90; read-out: MIC
Description: as §1

[24] = test system: P. rettgeri ATCC 9250; assay: In vitro antibacterial activity (MIC); conditions: Providencia rettgeri, ATCC9250, P. rettgeri ATCC 9250; read-out: MIC
Description: as §1

[25] = test system: P. vulgaris 100; assay: In vitro antibacterial activity (MIC); conditions: Proteus vulgaris; P. vulgaris 100; read-out: MIC
Description: as §1

[26] = test system: P. vulgaris 101; assay: In vitro antibacterial activity (MIC); conditions: Proteus vulgaris, 101, P. vulgaris 101; read-out: MIC
Description: as §1

[27] = test system: P. vulgaris ATCC 6380; assay: In vitro antibacterial activity (MIC); conditions: Proteus vulgaris, ATCC6380, P. vulgaris ATCC 6380; read-out: MIC
Description: as §1

[28] = test system: S. aureus 1059B; assay: In vitro antibacterial activity (MIC); conditions: Staphylococcus aureus, read-out: MIC
Description: as §1

[29] = test system: S. aureus Smith; assay: In vitro antibacterial activity (MIC); conditions: Staphylococcus aureus, S. aureus Smith; read-out: MIC
Description: as §1

[30] = test system: S. marcescens 5805; assay: In vitro antibacterial activity (MIC); conditions: Serratia marcescens, 5805, S. marcescens 5805; read-out: MIC
Description: as §1

[31] = test system: S. marcescens S147; assay: In vitro antibacterial activity (MIC); conditions: Serratia marcescens; S. marcescens S147; read-out: MIC
Description: as §1

[32] = test system: S. marcescens S2; assay: In vitro antibacterial activity (MIC); conditions: Serratia marcescens; S. marcescens S2; read-out: MIC
Description: as §1

[33] = test system: S. marcescens S3; assay: In vitro antibacterial activity (MIC); conditions: Serratia marcescens; S. marcescens S3; read-out: MIC
Description: as §1

[34] = test system: S. marcescens S4; assay: In vitro antibacterial activity (MIC); conditions: Serratia marcescens, S4, S. marcescens S4; read-out: MIC
Description: as §1

[35] = test system: S. marcescens S5; assay: In vitro antibacterial activity (MIC); conditions: Serratia marcescens, S5, S. marcescens S5; read-out: MIC
Description: as §1

[36] = test system: S. marcescens S714; assay: In vitro antibacterial activity (MIC); conditions: Serratia marcescens, S714, S. marcescens S714; read-out: MIC
Description: as §1

[37] = test system: S. marcescens SM; assay: In vitro antibacterial activity (MIC); conditions: Serratia marcescens, read-out: MIC
Description: as §1

[38] = test system: S. schottmuelleri; assay: In vitro antibacterial activity (MIC); conditions: read-out: MIC
Description: as §1

[39] = test system: P. aeruginosa 5712; assay: In vitro antibacterial activity (MIC); conditions: Pseudomonas aeruginosa; P. aeruginosa 5712; read-out: MIC
Description: as §1

[40] = test system: P. aeruginosa 6148B; assay: In vitro antibacterial activity (MIC); conditions: Pseudomonas aeruginosa, read-out: MIC
Description: as §1

[41] = test system: P. aeruginosa 8780; assay: In vitro antibacterial activity (MIC); conditions: Pseudomonas aeruginosa; P. aeruginosa 8780; read-out: MIC
Description: as §1

[42] = test system: P. aeruginosa POW 151; assay: In vitro antibacterial activity (MIC); conditions: Pseudomonas aeruginosa, POW151
Description: as §1

[43] = test system: S. pneumoniae SC; assay: In vitro antibacterial activity (MIC); conditions: Streptococcus pneumoniae, read-out: MIC
Description: as §1

[44] = test system: S. pyogenes 4; assay: In vitro antibacterial activity (MIC); conditions: Streptococcus pyogenes, 4, S. pyogenes 4; read-out: MIC
Description: as §1

[45] = Escherichia coli, 257, E. coli 257, read-out: MIC
[46] = Klebsiella aerogenes, 8, E. aerogenes 8
[47] = Klebsiella aerogenes, 83, E. aerogenes 83, read-out: MIC
[48] = Klebsiella pneumoniae, K. pneumoniae 5096, read-out: MIC

Row | Structure (SMILES) | MIC [2] [µg/mL] | MIC [3] [µg/mL] | MIC [6] [µg/mL] | MIC [7] [µg/mL] | MIC [8] [µg/mL] | MIC [9] [µg/mL] | MIC [10] [µg/mL] | MIC [11] [µg/mL] | MIC [12] [µg/mL] | MIC [13] [µg/mL] | MIC [15] [µg/mL] | MIC [16] [µg/mL] | MIC [17] [µg/mL] | MIC [19] [µg/mL] | MIC [20] [µg/mL] | MIC [23] [µg/mL] | MIC [24] [µg/mL] | MIC [25] [µg/mL] | MIC [26] [µg/mL] | MIC [27] [µg/mL] | also measured
1 | CC1(C)S[C@@H]2[C@H](N=CN3CCC(CCCn4ccnc4CO)CC3)C(=O)N2[C@H]1C(=O)O [R, [2S-(2alpha,5alpha,6beta)]-6-[[[4-[3-[2-(hydroxymethyl)-1H-imidazol-1-yl]propyl-1-piperidinyl]methylene]amino]-3,3-dimethyl-7-oxo-4-thia-1-azabicyclo[3.2.0]heptane-2-carboxylic acid hydrochloride 1.1 molar hydrate] | < 0.008 | 0.5 | 0.5 | 0.25 | 0.062 | 0.125 | 0.062 | 0.062 | 0.5 | 0.016 | 0.062 | < 0.008 | > 128 | 0.062 | 0.25 | 0.5 | 0.062 | 2 | 1 | < 0.008 | MIC [1, 45]: 0.016 µg/mL; MIC ([4]; Klebsiella aerogenes, 83): 1 µg/mL; MIC [5, 46]: 32 µg/mL; MIC ([14]; Klebsiella pneumoniae, 5096, K. pneumoniae 5096): 8 µg/mL; MIC [18]: 128 µg/mL; MIC [21]: 4 µg/mL; MIC [22]: 64 µg/mL; MIC [28]: 64 µg/mL; MIC [29]: 8 µg/mL; MIC [30]: 1 µg/mL; MIC [31]: 0.125 µg/mL; MIC [32]: 0.125 µg/mL; MIC [33]: 0.125 µg/mL; MIC [34]: 0.5 µg/mL; MIC [35]: 1 µg/mL; MIC [36]: 1 µg/mL; MIC [37]: 0.062 µg/mL; MIC [38]: < 0.008 µg/mL
2 | CC1(C)S[C@@H]2[C@H](N=CN3CCC(c4ncc[nH]4)CC3)C(=O)N2[C@H]1C(=O)O [O, [2S-(2alpha,5alpha,6beta)]-6-[[[4-(1H-imidazol-2-yl-1-piperidinyl]methylene]amino]-3,3-dimethyl-7-oxo-4-thia-1-azabicyclo[3.2.0]heptane-2-carboxylic acid hydrochloride trihydrate] | 0.062 | > 128 | 0.5 | 1 | 0.5 | 1 | 0.5 | 0.062 | 64 | 0.5 | 0.5 | 0.062 | > 128 | 0.5 | 1 | 0.5 | 0.5 | 8 | 32 | 0.25 | MIC ([1]; Escherichia coli, 257): 0.125 µg/mL; MIC [4, 47]: 8 µg/mL; MIC ([5]; Klebsiella aerogenes, E. aerogenes 8, read-out: MIC): 32 µg/mL; MIC [14, 48]: 64 µg/mL; MIC [18]: > 128 µg/mL; MIC [39]: > 128 µg/mL; MIC [40]: > 128 µg/mL; MIC [41]: > 128 µg/mL; MIC [42]: > 128 µg/mL; MIC [28]: > 128 µg/mL; MIC [30]: 8 µg/mL; MIC [31]: 0.25 µg/mL; MIC [32]: 0.5 µg/mL; MIC [33]: 0.25 µg/mL; MIC [34]: 2 µg/mL; MIC [36]: 1 µg/mL; MIC [37]: 0.5 µg/mL; MIC [43]: 1 µg/mL; MIC [44]: 0.5 µg/mL; MIC [38]: 0.125 µg/mL
3 | CN(C)C=Nc1nccn1CCCC1CCN(C=N[C@@H]2C(=O)N3[C@@H]2SC(C)(C)[C@@H]3C(=O)O)CC1 [S, [2S-(2alpha,5alpha,6beta)]-6-[[[4-[3-[2-[[(dimethylamino)methylene]amino]-1H-imidazol-1-yl]propyl]-1-piperidinyl]methylene]amino]-3,3-dimethyl-7-oxo-4-thia-1-azabicyclo[3.2.0]heptane-2-carboxylic acid 1.7 molar hydrochloride 2.6 molar hydrate] | 0.125 | 2 | 4 | 1 | 1 | 1 | 1 | 1 | 0.5 | 0.5 | 0.5 | 0.5 | > 128 | 1 | 2 | 4 | 0.25 | 8 | 8 | 1 | MIC [1, 45]: 0.25 µg/mL; MIC [4, 47]: 4 µg/mL; MIC [5, 46]: 32 µg/mL; MIC [14, 48]: > 128 µg/mL; MIC [21]: 8 µg/mL; MIC [22]: > 128 µg/mL; MIC [28]: 64 µg/mL; MIC [29]: 8 µg/mL; MIC [30]: 4 µg/mL; MIC [31]: 2 µg/mL; MIC [32]: 2 µg/mL; MIC [33]: 2 µg/mL; MIC [34]: 4 µg/mL; MIC [35]: 4 µg/mL; MIC [36]: 4 µg/mL; MIC [37]: 2 µg/mL; MIC [38]: 0.25 µg/mL
